# What was measured:
# [1] = target: E. coli DNA gyrase (Escherichia coli, UniProt P0AES6); assay: DNA gyrase supercoiling plate assay; type: biochemical; conditions: for IC50: IC50 E. coli gyrase, supercoiling assay; for remaining activity at 1 µM / remaining activity at 0.1 µM: read-out: RA (residual activity) E. coli gyrase
# [2] = target: E. coli topoisomerase IV (Escherichia coli, UniProt P20083); assay: topoisomerase IV relaxation plate assay; type: biochemical
# [3] = target: human DNA topoisomerase IIα (Homo sapiens, UniProt P11388); assay: human DNA topoisomerase IIα inhibition; type: biochemical; conditions: read-out: RA (residual activity) Human topo IIα
# Chain of human DNA topoisomerase IIα (P11388 whole entry): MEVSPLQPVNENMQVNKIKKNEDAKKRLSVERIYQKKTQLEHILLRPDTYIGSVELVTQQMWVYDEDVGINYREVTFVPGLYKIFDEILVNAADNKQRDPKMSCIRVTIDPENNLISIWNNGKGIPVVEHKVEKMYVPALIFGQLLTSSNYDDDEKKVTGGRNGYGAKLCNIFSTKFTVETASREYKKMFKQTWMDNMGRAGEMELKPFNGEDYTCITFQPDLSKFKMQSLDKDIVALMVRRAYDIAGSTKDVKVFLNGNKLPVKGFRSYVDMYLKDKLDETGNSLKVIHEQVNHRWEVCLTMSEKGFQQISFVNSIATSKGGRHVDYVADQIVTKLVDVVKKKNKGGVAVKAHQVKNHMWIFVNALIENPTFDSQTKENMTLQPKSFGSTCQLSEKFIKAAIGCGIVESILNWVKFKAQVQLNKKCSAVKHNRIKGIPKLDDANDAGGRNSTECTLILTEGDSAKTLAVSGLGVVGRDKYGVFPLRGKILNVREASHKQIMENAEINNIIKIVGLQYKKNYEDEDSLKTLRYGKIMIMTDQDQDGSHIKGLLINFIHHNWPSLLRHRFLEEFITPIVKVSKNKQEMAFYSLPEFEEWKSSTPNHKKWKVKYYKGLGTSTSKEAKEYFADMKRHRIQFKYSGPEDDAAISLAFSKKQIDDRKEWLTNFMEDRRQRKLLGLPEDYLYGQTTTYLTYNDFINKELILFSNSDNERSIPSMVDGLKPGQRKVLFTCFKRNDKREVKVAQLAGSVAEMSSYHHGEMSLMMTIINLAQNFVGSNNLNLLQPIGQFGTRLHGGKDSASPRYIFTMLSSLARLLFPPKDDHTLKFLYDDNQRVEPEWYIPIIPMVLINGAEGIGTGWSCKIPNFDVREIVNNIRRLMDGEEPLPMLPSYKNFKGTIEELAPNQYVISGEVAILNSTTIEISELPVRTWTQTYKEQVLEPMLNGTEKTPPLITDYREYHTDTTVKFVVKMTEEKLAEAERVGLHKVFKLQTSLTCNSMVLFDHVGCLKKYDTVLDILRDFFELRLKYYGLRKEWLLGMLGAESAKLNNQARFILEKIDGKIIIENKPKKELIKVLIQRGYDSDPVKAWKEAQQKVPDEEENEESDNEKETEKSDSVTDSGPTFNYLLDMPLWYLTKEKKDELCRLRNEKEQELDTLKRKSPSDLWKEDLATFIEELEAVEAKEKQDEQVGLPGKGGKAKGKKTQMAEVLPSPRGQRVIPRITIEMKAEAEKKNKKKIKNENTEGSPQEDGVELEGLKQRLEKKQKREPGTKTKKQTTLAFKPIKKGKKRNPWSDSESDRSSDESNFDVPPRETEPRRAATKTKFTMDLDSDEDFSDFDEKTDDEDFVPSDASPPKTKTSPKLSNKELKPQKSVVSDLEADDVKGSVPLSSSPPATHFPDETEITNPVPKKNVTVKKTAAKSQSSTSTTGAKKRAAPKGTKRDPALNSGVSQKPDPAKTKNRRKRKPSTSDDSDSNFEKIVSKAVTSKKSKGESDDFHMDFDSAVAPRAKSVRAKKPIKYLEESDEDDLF
# [4] = test system: S. aureus ATCC 29213; assay: MIC, broth microdilution; type: cell-based, Staphylococcus aureus; conditions: Staphylococcus aureus, ATCC29213, read-out: MIC S. aureus ATCC 29213, broth microdilution
# [5] = test system: E. coli ATCC 25922; assay: MIC, broth microdilution; type: cell-based; conditions: Escherichia coli, ATCC25922, read-out: MIC E. coli ATCC 25922
# [6] = test system: P. aeruginosa ATCC 27853; assay: MIC, broth microdilution; type: cell-based; conditions: Pseudomonas aeruginosa, ATCC27853, read-out: MIC P. aeruginosa ATCC 27853
# [7] = test system: A. baumannii ATCC 19606; assay: MIC, broth microdilution; type: cell-based; conditions: Acinetobacter baumannii, ATCC19606, read-out: MIC A. baumannii ATCC 19606
# [8] = test system: K. pneumoniae ATCC 700603; assay: MIC, broth microdilution; type: cell-based; conditions: Klebsiella pneumoniae, ATCC700603, read-out: MIC K. pneumoniae ATCC 700603
# [9] = test system: K. aerogenes ATCC 13408; assay: MIC, broth microdilution; type: cell-based; conditions: Klebsiella aerogenes, ATCC13408, read-out: MIC K. aerogenes ATCC 13408
# [10] = test system: S. aureus ATCC 43300 (MRSA); assay: MIC, broth microdilution; type: cell-based; conditions: Staphylococcus aureus, ATCC43300|MRSA, read-out: MIC S. aureus ATCC 43300 (MRSA)
# [11] = test system: S. aureus ATCC 700699 (VISA); assay: MIC, broth microdilution; type: cell-based; conditions: Staphylococcus aureus, ATCC700699|VISA, read-out: MIC S. aureus ATCC 700699 (VISA)
# [12] = test system: A. baumannii ATCC 17978; assay: MIC, broth microdilution; type: cell-based; conditions: Acinetobacter baumannii, ATCC17978, read-out: MIC A. baumannii ATCC 17978
# [13] = test system: K. pneumoniae ATCC 10031; assay: MIC, broth microdilution; type: cell-based; conditions: Klebsiella pneumoniae, ATCC10031, read-out: MIC K. pneumoniae ATCC 10031
# [14] = test system: E. spp. cloacae ATCC 13047; assay: MIC, broth microdilution; type: cell-based; conditions: read-out: MIC E. spp. cloacae ATCC 13047
# [15] = test system: E. faecalis ATCC 29212; assay: MIC, broth microdilution; type: cell-based; conditions: Enterococcus faecalis, ATCC29212, read-out: MIC E. faecalis ATCC 29212
# [16] = read-out: RA (residual activity) E. coli topo IV
# Chain of E. coli topoisomerase IV (P20083 whole entry): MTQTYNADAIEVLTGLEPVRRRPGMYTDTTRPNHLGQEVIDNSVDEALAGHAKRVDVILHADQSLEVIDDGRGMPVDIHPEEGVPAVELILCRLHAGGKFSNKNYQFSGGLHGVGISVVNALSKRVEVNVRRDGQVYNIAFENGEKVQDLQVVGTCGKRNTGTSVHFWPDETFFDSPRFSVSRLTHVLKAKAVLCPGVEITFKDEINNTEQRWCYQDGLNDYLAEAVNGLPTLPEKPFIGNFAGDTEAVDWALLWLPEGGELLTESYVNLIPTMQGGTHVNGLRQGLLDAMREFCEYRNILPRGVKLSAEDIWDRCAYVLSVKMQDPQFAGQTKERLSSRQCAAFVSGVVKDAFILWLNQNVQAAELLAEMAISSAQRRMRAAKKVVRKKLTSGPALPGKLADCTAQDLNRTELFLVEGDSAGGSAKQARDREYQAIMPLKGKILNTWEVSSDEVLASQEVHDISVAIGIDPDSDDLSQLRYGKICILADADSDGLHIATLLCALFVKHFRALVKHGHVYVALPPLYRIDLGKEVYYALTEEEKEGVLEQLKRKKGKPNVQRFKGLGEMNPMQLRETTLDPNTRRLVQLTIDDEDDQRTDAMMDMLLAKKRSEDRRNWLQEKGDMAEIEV
# Chain of E. coli topoisomerase IV (P0AFI2 whole entry partner): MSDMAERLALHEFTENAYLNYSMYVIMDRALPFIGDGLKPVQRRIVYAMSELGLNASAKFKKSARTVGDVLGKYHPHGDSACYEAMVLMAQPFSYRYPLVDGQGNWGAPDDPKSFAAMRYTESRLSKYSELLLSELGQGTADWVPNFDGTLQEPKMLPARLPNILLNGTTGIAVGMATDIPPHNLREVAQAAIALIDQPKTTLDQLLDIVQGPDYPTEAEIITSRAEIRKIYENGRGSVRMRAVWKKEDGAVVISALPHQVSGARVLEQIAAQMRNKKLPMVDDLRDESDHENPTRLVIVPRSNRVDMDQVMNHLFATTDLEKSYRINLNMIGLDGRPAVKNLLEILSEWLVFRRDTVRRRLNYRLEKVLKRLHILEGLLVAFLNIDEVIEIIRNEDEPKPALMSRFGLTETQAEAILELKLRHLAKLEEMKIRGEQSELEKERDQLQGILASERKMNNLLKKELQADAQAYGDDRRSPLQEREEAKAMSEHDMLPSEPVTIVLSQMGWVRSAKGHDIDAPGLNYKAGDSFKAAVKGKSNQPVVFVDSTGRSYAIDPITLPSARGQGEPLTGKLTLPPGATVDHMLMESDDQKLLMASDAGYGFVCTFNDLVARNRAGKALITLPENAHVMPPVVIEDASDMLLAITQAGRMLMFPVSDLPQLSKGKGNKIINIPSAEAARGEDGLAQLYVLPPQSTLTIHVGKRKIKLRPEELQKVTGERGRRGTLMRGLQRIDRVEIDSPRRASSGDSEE
compound,measurement,setting,value
"4,5-Dibromo-N-(2-morpholino-4-(5-oxo-4,5-dihydro-1,3,4-oxadiazol-2-yl)phenyl)-1H-pyrrole-2-carboxamide [Compound 27a]",RA (residual activity) E. coli gyrase,[1]; at 10 μM compound,98% (10 μM)
same,RA (residual activity) E. coli topo IV,[2]; at 1 μM compound,103% (1 μM)
"Cc1[nH]c(C(=O)Nc2ccc(C(=O)NCC(=O)O)cc2N2CC[C@H](NC(=O)OC(C)(C)C)C2)c(Cl)c1Cl [Compound 8b, (S)-(3-(3-((tert-Butoxycarbonyl)amino)pyrrolidin-1-yl)-4-(3,4-dichloro-5-methyl-1H-pyrrole-2-carboxamido)benzoyl)glycine]",IC50,[1],0.196 µM
"Cc1[nH]c(C(=O)Nc2ccc(C(=O)NCC(=O)O)cc2N2CC[C@@H](NC(=O)OC(C)(C)C)C2)c(Cl)c1Cl [Compound 8c, (R)-(3-(3-((tert-Butoxycarbonyl)amino)pyrrolidin-1-yl)-4-(3,4-dichloro-5-methyl-1H-pyrrole-2-carboxamido)benzoyl)glycine]",IC50,[1],0.162 µM
"CC(C)(C)OC(=O)N1CCN(c2cc(C(=O)NCC(=O)O)ccc2NC(=O)c2cc(Br)c(Br)[nH]2)CC1 [Compound 9a, (3-(4-(tert-Butoxycarbonyl)piperazin-1-yl)-4-(4,5-dibromo-1H-pyrrole-2-carboxamido)benzoyl)glycine]",IC50,[1],0.362 µM
"CC(C)(C)OC(=O)N[C@H]1CCN(c2cc(C(=O)NCC(=O)O)ccc2NC(=O)c2cc(Br)c(Br)[nH]2)C1 [Compound 9b, (S)-(3-(3-((tert-Butoxycarbonyl)amino)pyrrolidin-1-yl)-4-(4,5-dibromo-1H-pyrrole-2-carboxamido)benzoyl)glycine]",IC50,[1],4.11 µM
"CC(C)(C)OC(=O)N[C@@H]1CCN(c2cc(C(=O)NCC(=O)O)ccc2NC(=O)c2cc(Br)c(Br)[nH]2)C1 [Compound 9c, (R)-(3-(3-((tert-Butoxycarbonyl)amino)pyrrolidin-1-yl)-4-(4,5-dibromo-1H-pyrrole-2-carboxamido)benzoyl)glycine]",IC50,[1],5.39 µM
"Cc1[nH]c(C(=O)Nc2ccc(C(=O)NCC(=O)O)cc2N2CCNCC2)c(Cl)c1Cl [Compound 10a, 4-(5-((Carboxymethyl)carbamoyl)-2-(3,4-dichloro-5-methyl-1H-pyrrole-2-carboxamido)phenyl)piperazin-1-ium chloride]",remaining activity at 1 µM,[2]; [16],93%
same,remaining activity at 10 µM,[3],78%
"Cc1[nH]c(C(=O)Nc2ccc(C(=O)NCC(=O)O)cc2N2CC[C@@H](N)C2)c(Cl)c1Cl [Compound 10c, (R)-1-(5-((Carboxymethyl)carbamoyl)-2-(3,4-dichloro-5-methyl-1H-pyrrole-2-carboxamido)phenyl)pyrrolidin-3-aminium chloride]",IC50,[1],~0.02 µM
same,remaining activity at 40 µM,[3],112%
"O=C(O)CNC(=O)c1ccc(NC(=O)c2cc(Br)c(Br)[nH]2)c(N2CCNCC2)c1 [Compound 11a, 4-(5-((Carboxymethyl)carbamoyl)-2-(4,5-dibromo-1H-pyrrole-2-carboxamido)phenyl)piperazin-1-ium chloride]",remaining activity at 40 µM,[3],100%
"N[C@H]1CCN(c2cc(C(=O)NCC(=O)O)ccc2NC(=O)c2cc(Br)c(Br)[nH]2)C1 [Compound 11b, (S)-1-(5-((Carboxymethyl)carbamoyl)-2-(4,5-dibromo-1H-pyrrole-2-carboxamido)phenyl)pyrrolidin-3-aminium chloride]",IC50,[1],0.235 µM
"N[C@@H]1CCN(c2cc(C(=O)NCC(=O)O)ccc2NC(=O)c2cc(Br)c(Br)[nH]2)C1 [Compound 11c, (R)-1-(5-((Carboxymethyl)carbamoyl)-2-(4,5-dibromo-1H-pyrrole-2-carboxamido)phenyl)pyrrolidin-3-aminium chloride]",IC50,[1],0.996 µM
same,remaining activity at 10 µM,[2]; [16],75%
"Cc1[nH]c(C(=O)Nc2ccc(C(=O)NCc3n[nH]c(=O)o3)cc2N2CCN(C(=O)OC(C)(C)C)CC2)c(Cl)c1Cl [Compound 13, tert-Butyl 4-(2-(3,4-dichloro-5-methyl-1H-pyrrole-2-carboxamido)-5-(((5-oxo-4,5-dihydro-1,3,4-oxadiazol-2-yl)methyl)carbamoyl)phenyl)piperazine-1-carboxylate]",IC50,[1],0.483 µM
same,MIC,[4],1 mg/L
"Cc1[nH]c(C(=O)Nc2ccc(C(=O)NCc3n[nH]c(=O)o3)cc2N2CCNCC2)c(Cl)c1Cl [Compound 14, 4-(2-(3,4-Dichloro-5-methyl-1H-pyrrole-2-carboxamido)-5-(((5-oxo-4,5-dihydro-1,3,4-oxadiazol-2-yl)methyl)carbamoyl)phenyl)piperazin-1-ium chloride]",IC50,[1],~0.02 µM
same,remaining activity at 10 µM,[3],111%
"Cc1[nH]c(C(=O)Nc2ccc(C(=O)O)cc2N2CCC[C@H](NC(=O)OC(C)(C)C)C2)c(Cl)c1Cl [Compound 18c, (S)-3-(3-((tert-Butoxycarbonyl)amino)piperidin-1-yl)-4-(3,4-dichloro-5-methyl-1H-pyrrole-2-carboxamido)benzoic acid]",remaining activity at 1 µM,[1],67%
same,MIC,[5],> 32 mg/L
same,MIC,[6],> 32 mg/L
same,MIC,[7],> 32 mg/L
same,MIC,[8],> 32 mg/L
same,MIC,[9],> 32 mg/L
"Cc1[nH]c(C(=O)Nc2ccc(C(=O)O)cc2N2CCCC(CNC(=O)OC(C)(C)C)C2)c(Cl)c1Cl (stereo not shown) [Compound 18i, 3-(3-(((tert-Butoxycarbonyl)amino)methyl)piperidin-1-yl)-4-(3,4-dichloro-5-methyl-1H-pyrrole-2-carboxamido)benzoic acid]",remaining activity at 0.1 µM,[1],89%
same,remaining activity at 100 µM,[3],128%
same,MIC,[5],> 32 mg/L
same,MIC,[6],> 32 mg/L
same,MIC,[7],> 32 mg/L
same,MIC,[8],> 32 mg/L
same,MIC,[9],> 32 mg/L
"COC(=O)c1ccc(NC(=O)c2[nH]c(C)c(Cl)c2Cl)c(N2CCCC(CN)C2)c1.Cl (stereo not shown) [Compound 19i, (1-(2-(3,4-Dichloro-5-methyl-1H-pyrrole-2-carboxamido)-5-(methoxycarbonyl)phenyl)piperidin-3-yl)methanaminium chloride]",IC50,[1],0.0142 µM
same,IC50,[2],0.533 µM
same,MIC,[4],8 mg/L
same,MIC,[10],2 mg/L
same,MIC,[11],1 mg/L
same,MIC,[5],4 mg/L
same,MIC,[6],> 32 mg/L
same,MIC,[12],8 mg/L
same,MIC,[7],8 mg/L
same,MIC,[13],8 mg/L
same,MIC,[8],> 32 mg/L
same,MIC,[14],> 64 mg/L
same,MIC,[9],> 32 mg/L
"Cc1[nH]c(C(=O)Nc2ccc(-c3n[nH]c(=O)o3)cc2N2CCN(C(=O)OC(C)(C)C)CC2)c(Cl)c1Cl [Compound 22a, tert-Butyl 4-(2-(3,4-dichloro-5-methyl-1H-pyrrole-2-carboxamido)-5-(5-oxo-4,5-dihydro-1,3,4-oxadiazol-2-yl)phenyl)piperazine-1-carboxylate]",IC50,[1],0.059 µM
same,remaining activity at 1 µM,[2]; [16],104%
same,remaining activity at 100 µM,[3],100%
"Cc1[nH]c(C(=O)Nc2ccc(-c3n[nH]c(=O)o3)cc2N2CCC[C@H](NC(=O)OC(C)(C)C)C2)c(Cl)c1Cl [Compound 22c, tert-Butyl (S)-(1-(2-(3,4-dichloro-5-methyl-1H-pyrrole-2-carboxamido)-5-(5-oxo-4,5-dihydro-1,3,4-oxadiazol-2-yl)phenyl)piperidin-3-yl)carbamate]",remaining activity at 0.1 µM,[1],90%
same,MIC,[4],32 mg/L
same,MIC,[5],> 32 mg/L
same,MIC,[6],> 32 mg/L
same,MIC,[7],> 32 mg/L
same,MIC,[8],> 32 mg/L
same,MIC,[9],> 32 mg/L
"Cc1[nH]c(C(=O)Nc2ccc(-c3n[nH]c(=O)o3)cc2N2CCOC(C)C2)c(Cl)c1Cl (stereo not shown) [Compound 22f, 3,4-Dichloro-5-methyl-N-(2-(2-methylmorpholino)-4-(5-oxo-4,5-dihydro-1,3,4-oxadiazol-2-yl)phenyl)-1H-pyrrole-2-carboxamide]",remaining activity at 100 µM,[3],98%
same,MIC,[4],> 64 mg/L
same,MIC,[10],> 64 mg/L
same,MIC,[15],1 mg/L
same,MIC,[5],> 64 mg/L
same,MIC,[6],> 64 mg/L
same,MIC,[12],> 64 mg/L
same,MIC,[13],> 64 mg/L
same,MIC,[14],> 64 mg/L
"Cc1[nH]c(C(=O)Nc2ccc(-c3n[nH]c(=O)o3)cc2N2CC(C)OC(C)C2)c(Cl)c1Cl (stereo not shown) [Compound 22g, 3,4-Dichloro-N-(2-(2,6-dimethylmorpholino)-4-(5-oxo-4,5-dihydro-1,3,4-oxadiazol-2-yl)phenyl)-5-methyl-1H-pyrrole-2-carboxamide]",remaining activity at 100 µM,[3],97%
"Cc1[nH]c(C(=O)N(Cc2ccccc2)c2ccc(-c3n[nH]c(=O)o3)cc2)c(Cl)c1Cl [Compound 33, N-Benzyl-3,4-dichloro-5-methyl-N-(4-(5-oxo-4,5-dihydro-1,3,4-oxadiazol-2-yl)phenyl)-1H-pyrrole-2-carboxamide]",remaining activity at 1 µM,[1],81%
same,remaining activity at 100 µM,[3],92%

# Source: article PMC11378028 (RSC Advances, 2024)
